Tests used:
AmpC [1] = target: T1, AmpC (Escherichia coli, UniProt P00811); test: Competitive inhibition assay with nitrocefin, Ki; type: biochemical; design: made in house; conditions: AmpC; values in nM
Protocol: (§1) The β-lactamases used in the present study were from a Clinical Biochemistry Laboratory collection (Department of Biotechnological and Applied Clinical Sciences, University of L’Aquila, L’Aquila, Italy). […] The concentration of each enzyme was determined by a Bradford assay.
The plot v0/vi versus [I] yielded a straight line of slope KM/(KM + S) × Ki.
Figure 9 Compounds synthesised and their biological evaluation. AC = Amplification coefficient. […] Light blue indicates the compounds from the AmpC screening.

AmpC [2] = target: T1, AmpC; design: made in house; conditions: AmpC 20 mol%; warhead 3 + alkyne cluster; 37 °C, 24 h
Protocol: Following the same conditions used for the multicomponent screening with KPC-2, the in situ click chemistry experiment was performed using AmpC as template.
(§2) Binary and multicomponent KTGS. […] The microtube was shaken at 300 rpm at 37 °C for 24 h. Reactions were transferred into a LC–MS vial and directly injected (10 µL) for liquid chromatography–mass spectrometry (LC–MS). Reactions were analysed with an Ultimate 3000 UHPLC coupled to a Q-exactive hybrid quadrupole-orbitrap mass spectrometer via an HESI-II heated electrospray ionisation source. The chromatographic separation was performed injecting a 10 µL sample volume on a Hypersil Gold C18 100 × 2.1 mm, 1.9 µm column (Thermo Fisher Scientific), kept at 30 °C eluting with 0.3 mL/min flow of ultrapure water (A) and methanol (B), both with 0.1% formic acid as mobile phase. […] A data-dependent mass spectrometric data acquisition strategy was used for full MS/DD-MS2. […] An inclusion list was eventually used to target the MS2 spectra acquisition of preferred ion species. Detection was based on calculated [M+H]^+ and [M−H]^− molecular ions with a 5 ppm accuracy tolerance for their respective ion chromatogram extraction. Peak retention time and area of detected target compounds was used for their detection and semi-quantitative evaluation in between reaction batches.
For controls (buffer and BSA), AmpC/KPC-2 is replaced with no enzyme (buffer volume 95 µL) and BSA (stock 100 µM, final concentration 5 µM, buffer volume 90 µL). Hits were identified in each cluster by mass and retention time and compared with both controls (buffer and BSA) and synthetically prepared triazoles obtained in mixtures.

AmpC [3] = target: T1, AmpC; test: Binary in situ click chemistry between 3 and Al-12, with or without SM23; design: made in house; conditions: binary 3 + Al-12; AmpC 20 mol%; SM23 1 mol%
Protocol: as §2
For controls (buffer and BSA), AmpC/KPC-2 is replaced with no enzyme (buffer volume 95 µL) and BSA (stock 100 µM, final concentration 5 µM, buffer volume 90 µL). […]

AmpC [4] = target: T1, AmpC; test: LC-MS t-SIM detection of boronic acids incubated with AmpC; design: made in house; conditions: 24 h, 37 °C
From the text: Given that boronic acids act as transition-state inhibitors by binding the catalytic serine of β-lactamases through a reversible covalent bond, we aimed to determine whether the in situ click chemistry reaction products were quantitatively detected during LC–MS analysis. Although boronic acids are reversible binders, their fast on–slow off behaviour raised concerns that triazole product formation might be underestimated due to covalent adducts forming with the protein target. To investigate this, compound 10a, warhead 3, and compounds 8 and 9 were incubated with AmpC (1:1 or 1:5 protein:compound ratio), and their detection was monitored over 24 h (Figure 10). […] The percentage of boronic acids detected was estimated using peak area measurements in the LC–MS-targeted SIM mode, with quantification being performed using calibration curves. The experiments were conducted at 37 °C in a 95:5 sodium phosphate 50 mM pH 7.0:DMSO mixture.
Figure 10 The % of detection of 10a (grey box), 3 (yellow box), 8 (green box), and 9 (blue box) over the course of the 24 h using the t-SIM method. Each cpd was tested in presence of 20% mol of AmpC or stoichiometric amount of AmpC. Each box includes 4 columns corresponding to % boronic acid detected at a certain time point (0, 8, 16, and 24 h).

OXA-48 = OXA-48 (Klebsiella pneumoniae, UniProt Q6XEC0); test: KM of reporter substrate (Hanes-Woolf); type: biochemical; conditions: NaPi 50 mM pH 7.0
Protocol: (§3) The β-lactamases used in the present study were from a Clinical Biochemistry Laboratory collection (Department of Biotechnological and Applied Clinical Sciences, University of L’Aquila, L’Aquila, Italy). All enzymes show a purity degree of higher than 95%. The concentration of each enzyme was determined by a Bradford assay.

AmpC [5] = target: T1, AmpC; conditions: read-out: KM substrate; pH 7
Protocol: as §1

KPC-53 = KPC-53 (Klebsiella pneumoniae, UniProt Q9F663, DUP166-167/H272Y); conditions: read-out: KM substrate, NaPi 50 mM pH 7.0
Protocol: as §3

SHV-12 = SHV-12 (Klebsiella pneumoniae, UniProt P0AD64, E235K/G234S/L31Q); conditions: read-out: KM substrate, NaPi 50 mM pH 7.0
Protocol: as §3

NDM-1 = NDM-1 (Klebsiella pneumoniae, UniProt C7C422); conditions: read-out: KM substrate, HEPES 20 mM pH 7.0 + 20 µM Zn
Protocol: as §1

KPC-2 = target: T2, KPC-2 (Klebsiella pneumoniae, UniProt Q9F663); design: method as in PMID 26102369, PMID 34970229, PMID 37358467, PMID 26729491; conditions: ref [17],[19],[35],[36]; cited from earlier work
T2 construct: made in house

ADC-7 = target: ADC-7; design: method as in PMID 26102369, PMID 34970229, PMID 37358467, PMID 26729491; conditions: ref [17],[19],[35],[36]; cited from earlier work

T1 sequence (P00811 20-377): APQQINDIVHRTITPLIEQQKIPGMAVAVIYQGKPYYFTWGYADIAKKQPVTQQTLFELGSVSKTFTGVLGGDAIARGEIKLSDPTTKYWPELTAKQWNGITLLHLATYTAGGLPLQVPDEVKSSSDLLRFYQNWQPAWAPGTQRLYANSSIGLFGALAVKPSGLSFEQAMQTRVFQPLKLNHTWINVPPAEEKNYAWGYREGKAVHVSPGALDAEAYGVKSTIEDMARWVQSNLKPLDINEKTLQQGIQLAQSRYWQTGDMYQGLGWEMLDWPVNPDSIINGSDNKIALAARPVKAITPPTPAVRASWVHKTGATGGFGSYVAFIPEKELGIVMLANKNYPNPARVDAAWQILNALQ

With `O=S(=O)(NCc1cnnn1Cc1cccc(B(O)O)c1)C1CCCCC1` [10a] the Ki (AmpC [1]) was 140 nM, the “AC (amplification coefficient)” value (AmpC [2]) was 5-6 and the “AC 10/10a” value (AmpC [3]) was 1-2. The “% boronic acid detected (remaining)” value (AmpC [4]; 20 mol% AmpC, sodium phosphate pH 7.0:DMSO 95:5) was 83% and the “boronic acid level detected” value (AmpC [4]; stoichiometric AmpC) was “remained stable”.
Compound `C[C@@H](O)[C@H]1C(=O)N2C(C(=O)O)=C(SCCN=CN)C[C@H]12` [IMI, Imipenem] has a Km (OXA-48) of 13 ± 1 µM.
Compound `O=C(Cc1cccs1)N[C@@H]1C(=O)N2C(C(=O)O)=C(/C=C/c3ccc([N+](=O)[O-])cc3[N+](=O)[O-])CS[C@H]12` [NCF, Nitrocefin] has a Km (AmpC [5]) of 118 ± 2 µM, a Km (KPC-53) of 106 ± 2 µM and a Km (SHV-12) of 50 ± 3 µM.
`C[C@@H](O)[C@H]1C(=O)N2C(C(=O)O)=C(S[C@@H]3CN[C@H](C(=O)N(C)C)C3)[C@H](C)[C@H]12` [MPM, Meropenem] showed a Km (NDM-1) of 80 ± 1 µM.
For `O=C(Cc1cccs1)NC(Cn1cc(C(=O)O)nn1)B(O)O` (stereo not drawn) [S02030], the IC50 (KPC-2) is listed as 80 nM and the Ki (ADC-7) is listed as 45 nM.
